# Counter-ions that a name gives are not always drawn. Peptide text beside a SMILES is read from it. * marks the point of attachment. Cbz = O=C(OCc1ccccc1)*; CH2F = FC*
# Assays:
# [1] = system: human embryonic stem cells; assay: Pancaspase inhibitor effect on PluriSIn #1-induced cell death; assay type: cell-based; conditions: 25 μM or 100 μM, 1 hour before 20 μM PluriSIn #1; 24 hours
# Description: The effect of the pancaspase inhibitor Z-VAD-FMK on PluriSIn #1-induced cell death was also examined. Cells were treated with 25 μM or 100 μM of Z-VAD-FMK, and 1 hour later PluriSIn #1 (20 μM) was added to the medium. After 24 hours, the cultures were subjected to cell viability measurements, as described hereinabove.
# [2] = Pilot cytotoxicity screen with 50 commercially available compounds; assay type: cell-based, human; conditions: human; after 24 hours, at a concentration of 1-3 μM; read-out: decrease in cell viability
# Description: (§1) The CellTiter-Glo® luminescent cell viability assay (Promega, Madison, Wis.) was implemented as a high-throughput screening (HTS) assay for a chemical library screen in a 384-well format. After the DMSO tolerance of the assay was assessed, and the optimal cell numbers were determined for each cell type, a pilot screen was performed with the following 50 commercially available compounds:
# (§2) 3-acetamidophenol, 4-acetamidophenol, 6-methylcoumarin, acetaminophen, acetazolamide, actidione, amantadine hydrochloride, aminosalicylic acid, amodiaquine, amsacrine hydrochloride, aztreonam, caffeine, carboplatin, cefamandole sodium, cholic acid, ciprofloxacin, clozapine, coumarin, crotaline, diflunisal, dopamine, doxycycline, erythromycin, estradiol, famotidine, fenofibrate, fludrocortisone acetate, gentamicin, imipramine, isoniazid, isoproterenol, kanamycin, ketoconazole, L-thyroxine, mefenamic acid, nadolol, naibuphine hydrochloride hydrate, nizatidine, norepinephrine, phenobarbital, quinine hydrochloride, salicylate, sodium 2-mercapto-ethanesulfonate, sulfasalazine, sulindac, tetracycline, tetraethylthiarum disulfide, timolol maleate, valproic acid sodium, and WY-14643.
# (§3) A pilot screen was then performed with 50 commercially-available compounds (as described in the Materials and Methods section hereinabove), which were randomly selected from a bank of known cytotoxic compounds. […]
# [3] = system: embryonic stem cells and differentiated cells (human fibroblasts); assay: Cytotoxicity of ER stress inducer and protein synthesis inhibitor with or without oleic acid
# [4] = system: human pluripotent stem cells (hPSCs); assay: Pilot cytotoxicity screen with 50 commercially available compounds; assay type: cell-based; conditions: within 24 hours
# Description: as §1, §2, §3
# [5] = system: human embryonic stem cells; assay: Oleic acid rescue assay; assay type: cell-based; conditions: 20 μM PluriSIn (2 μM amsacrine); up to 100 μM BSA-OA
# Description: Human embryonic stem cells were cultured without feeder cells in CELLSTAR® 24-well tissue culture plates (Greiner Bio-One) pre-coated with Matrigel™, using mTeSR1 defined medium. […] After 24 hours, the cells were subjected to microscopy imaging and to cell viability measurements.
# In order to further investigate the effect of SCD activity on hPSC viability, the ability of exogenous supplementation of oleic acid (the direct product of SCD1) to rescue cells from PluriSIn-induced apoptosis was further studied, using procedures described in the Materials and Methods section. Cells were exposed to PluriSn #1 in the presence of increasing concentrations of BSA-conjugated oleic acid (BSA-OA).
# For comparison, cells were exposed to 20 μM of PluriSIn #1, #2, #3 and #6 in the presence of 100 μM BSA-OA.
# hPSCs = assay: hPSC viability after SCD1 inhibitors with or without oleic acid; assay type: cell-based, human; conditions: 75 nM inhibitor, 100 μM oleic acid, 48 hours
# Description: (§4) In order to determine whether hPSC viability indeed depends on functional SCD1 activity, hPSCs were exposed to 75 nM of the specific SCD1 inhibitors A939572 and CAY-10566 for 48 hours. Some samples were supplemented with 100 μM oleic acid in order to evaluate the effect of exogenous supplementation of oleic acid (a product of SCD1 activity) on cell death.
# [6] = as above; assay type: cell-based, human; conditions: human, human pluripotent stem cells (hPSCs), 75 nM, read-out: decrease in viability of hPSCs
# Description: as §4
structure (smiles),measurement,setting,value
COC(=O)C[C@H](NC(=O)[C@H](C)NC(=O)[C@@H](NC(=O)OCc1ccccc1)C(C)C)C(=O)CF [Z-VAD-FMK] (Cbz-Val-Ala-Asp(OMe)-CH2F),suppression of PluriSIn #1-induced cell death,[1],significant suppressed PluriSIn #1-induced cell death
C[C@@H]1C[C@@H]([C@H](O)CC2CC(=O)NC(=O)C2)C(=O)[C@@H](C)C1 [cycloheximide],cytotoxicity at 24 h,[2],~50%
same,protection by oleic acid against the compound's cytotoxicity,[3]; 100 μM oleic acid,does not protect
same,cytotoxicity towards embryonic stem cells and differentiated cells,"[3]; 1 mM dithiothreitol or 10 μM cycloheximide, 48 hours",cytotoxic towards both embryonic stem cells and differentiated cells
"COc1cc(NS(C)(=O)=O)ccc1Nc1c2ccccc2nc2ccccc12 [amsacrine hydrochloride, reference compound]",cell killing,[4],killed almost all cells
same,protection by BSA-conjugated oleic acid (BSA-OA) against cell death induced by the compound,[5],did not protect
"Cc1nnc(-c2ccc(N3CCC(Oc4cc(F)ccc4Cl)CC3)nn2)o1 [CAY-10566, 3-[4-(2-chloro-5-fluorophenoxy)-1-piperidinyl]-6-(5-methyl-1,3,4-oxadiazol-2-yl)-pyridazine]",rescue from SCD1 inhibitor-induced cell death by oleic acid,hPSCs,completely rescued
same,"cytotoxicity at 48 h, 75 nM",[6],> 80%

# Source: patent US20180153830A1, “SELECTIVE INHIBITORS OF UNDIFFERENTIATED CELLS” (Yissum Research Development Company of the Hebrew …, priority 2012, published 2018)
